14 compounds from patent publication US20250042903A1, “TRIAZINE INHIBITORS OF CYCLIN-DEPENDENT KINASES” (H. LEE MOFFITT CANCER CENTER AND RESEARCH INSTITUTE, INC., priority 2021, published 2025) can be followed below.

Where only a bound is given, the exact number is not on record here.

For assay [1], the target named is cyclin-dependent kinase 12 (Homo sapiens (Human), UniProt Q9NYV4). Description: Inhibition of cyclin-dependent kinase 12. In kind it is biochemical. Particulars: read-out: CDK12 inhibition, IC50. From the text:
(§1) The inhibitory and antiproliferative activities of selected compounds disclosed herein against cyclin-dependent kinase 12 were investigated.

In the next assay the test system is MDA-MB-231. As to the kind of experiment: Antiproliferative activity in MDA-MB-231. It is filed as cell-based. Particulars: Homo sapiens.
Text: as §1

For orientation: IC50 means the midpoint of a concentration-inhibition curve. A word on the GI50: it is the concentration that inhibits growth by half.

Sequence of cyclin-dependent kinase 12 (Q9NYV4 whole entry): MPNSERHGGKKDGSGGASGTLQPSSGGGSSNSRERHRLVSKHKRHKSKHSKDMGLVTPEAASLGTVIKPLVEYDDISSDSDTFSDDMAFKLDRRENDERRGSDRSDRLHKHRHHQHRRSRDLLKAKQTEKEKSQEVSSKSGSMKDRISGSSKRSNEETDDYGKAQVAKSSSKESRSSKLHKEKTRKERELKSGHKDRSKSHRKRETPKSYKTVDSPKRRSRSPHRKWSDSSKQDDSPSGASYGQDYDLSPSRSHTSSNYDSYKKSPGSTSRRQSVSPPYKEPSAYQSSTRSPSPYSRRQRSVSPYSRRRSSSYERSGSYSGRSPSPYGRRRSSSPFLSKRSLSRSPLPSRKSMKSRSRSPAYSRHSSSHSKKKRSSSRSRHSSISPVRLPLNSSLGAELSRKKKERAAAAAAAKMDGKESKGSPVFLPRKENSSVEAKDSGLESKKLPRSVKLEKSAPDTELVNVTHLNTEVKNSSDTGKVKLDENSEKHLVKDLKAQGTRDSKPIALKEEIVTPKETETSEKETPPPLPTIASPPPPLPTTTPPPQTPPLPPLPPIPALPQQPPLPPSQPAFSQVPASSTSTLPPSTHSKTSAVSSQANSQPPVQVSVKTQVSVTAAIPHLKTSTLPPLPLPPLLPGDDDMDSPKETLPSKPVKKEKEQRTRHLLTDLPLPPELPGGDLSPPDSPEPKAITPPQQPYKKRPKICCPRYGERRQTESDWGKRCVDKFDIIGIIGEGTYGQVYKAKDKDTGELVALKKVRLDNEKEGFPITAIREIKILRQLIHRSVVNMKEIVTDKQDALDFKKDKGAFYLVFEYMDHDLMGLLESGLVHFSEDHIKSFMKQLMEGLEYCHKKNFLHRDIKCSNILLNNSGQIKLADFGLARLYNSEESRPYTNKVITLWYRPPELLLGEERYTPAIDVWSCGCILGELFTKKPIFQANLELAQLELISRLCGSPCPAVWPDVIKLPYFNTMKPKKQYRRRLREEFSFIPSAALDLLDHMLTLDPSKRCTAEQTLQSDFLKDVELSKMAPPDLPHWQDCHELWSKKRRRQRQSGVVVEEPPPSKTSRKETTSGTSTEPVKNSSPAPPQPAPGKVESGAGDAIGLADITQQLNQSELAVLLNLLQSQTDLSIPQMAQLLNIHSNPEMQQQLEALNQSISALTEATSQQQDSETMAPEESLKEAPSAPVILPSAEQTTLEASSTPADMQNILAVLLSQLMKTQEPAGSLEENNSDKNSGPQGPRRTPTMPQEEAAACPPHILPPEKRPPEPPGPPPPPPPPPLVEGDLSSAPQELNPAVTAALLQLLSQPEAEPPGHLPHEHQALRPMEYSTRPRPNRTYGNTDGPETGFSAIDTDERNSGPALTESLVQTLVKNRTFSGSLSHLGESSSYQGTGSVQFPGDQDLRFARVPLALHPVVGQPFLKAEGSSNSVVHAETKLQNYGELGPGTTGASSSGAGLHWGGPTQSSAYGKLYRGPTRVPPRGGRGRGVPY
Sequence of cyclin-dependent kinase 12 (O75909 whole entry partner): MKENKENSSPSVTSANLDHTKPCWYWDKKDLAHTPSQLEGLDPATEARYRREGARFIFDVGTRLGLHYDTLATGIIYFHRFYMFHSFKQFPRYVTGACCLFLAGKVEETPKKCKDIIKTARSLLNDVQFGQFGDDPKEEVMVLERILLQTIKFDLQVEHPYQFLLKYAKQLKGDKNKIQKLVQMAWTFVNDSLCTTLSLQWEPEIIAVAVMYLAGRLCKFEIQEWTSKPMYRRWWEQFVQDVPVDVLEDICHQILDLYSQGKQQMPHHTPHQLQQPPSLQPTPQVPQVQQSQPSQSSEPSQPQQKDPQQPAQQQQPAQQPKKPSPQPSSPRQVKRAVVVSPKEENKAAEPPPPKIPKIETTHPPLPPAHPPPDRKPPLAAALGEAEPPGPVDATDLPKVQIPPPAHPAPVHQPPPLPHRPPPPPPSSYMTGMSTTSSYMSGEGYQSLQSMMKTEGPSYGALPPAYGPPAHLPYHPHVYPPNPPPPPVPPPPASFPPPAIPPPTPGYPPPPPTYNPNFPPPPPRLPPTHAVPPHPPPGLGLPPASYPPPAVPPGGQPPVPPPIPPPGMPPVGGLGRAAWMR

Consider `FC(F)n1cc(-c2cnn3c(NCc4nc5cccc(Cl)c5[nH]4)nc(N4CCOCC4)nc23)cn1` [Compound 6, N-((7-chloro-1H-benzo[d]imidazol-2-yl)methyl)-8-(1-(difluoromethyl)-1H-pyrazol-4-yl)-2-morpholinopyrazolo[1,5-a][1,3,5]triazin-4-amine], for which, in assay [1], the concentration for half-maximal inhibition (IC50) is 65 nM. The compound further displayed a concentration for 50% growth inhibition (GI50) in the assay on MDA-MB-231 of 62 nM.
With `FC(F)n1cc(-c2cnn3c(NCc4nc5cccc(Cl)c5[nH]4)nc(N4CCC(F)(F)CC4)nc23)cn1` [Compound 7, N-((7-chloro-1H-benzo[d]imidazol-2-yl)methyl)-8-(1-(difluoromethyl)-1H-pyrazol-4-yl)-2-(4,4-difluoropiperidin-1-yl)pyrazolo[1,5-a][1,3,5]triazin-4-amine], the 50% inhibitory concentration (IC50) in assay [1] came to 552 nM. In the assay on MDA-MB-231, this compound registered a 50% growth inhibitory concentration (GI50) of 980 nM.
On the same counts, the results for `Clc1cc2nc(CNc3nc(N4CCOCC4)nc4c(-c5ccsc5)cnn34)[nH]c2cc1Cl` [Compound 5, N-((5,6-dichloro-1H-benzo[d]imidazol-2-yl)methyl)-2-morpholino-8-(thiophen-3-yl)pyrazolo[1,5-a][1,3,5]triazin-4-amine] are 2420 nM and 764 nM.
On the same counts, the results for `Cn1cc(-c2cnn3c(NCc4nc5cccc(Cl)c5[nH]4)nc(N4CCC(F)(F)CC4)nc23)cn1` [Compound 13, N-((7-chloro-1H-benzo[d]imidazol-2-yl)methyl)-2-(4,4-difluoropiperidin-1-yl)-8-(1-methyl-1H-pyrazol-4-yl)pyrazolo[1,5-a][1,3,5]triazin-4-amine] are 1280 nM and 3770 nM.
The matching figures for `FC(F)n1cc(-c2cnn3c(NCc4nc5cc(Cl)c(Cl)cc5[nH]4)nc(N4CCC(F)(F)CC4)nc23)cn1` [Compound 3, N-((5,6-dichloro-1H-benzo[d]imidazol-2-yl)methyl)-8-(1-(difluoromethyl)-1H-pyrazol-4-yl)-2-(4,4-difluoropiperidin-1-yl)pyrazolo[1,5-a][1,3,5]triazin-4-amine]: over 10000 nM and 710 nM.
For the compound `Cn1cc(-c2cnn3c(NCc4nc5cc(Cl)c(Cl)cc5[nH]4)nc(N4CCOCC4)nc23)cn1` [Compound 1, N-((5,6-dichloro-1H-benzo[d]imidazol-2-yl)methyl)-8-(1-methyl-1H-pyrazol-4-yl)-2-morpholinopyrazolo[1,5-a][1,3,5]triazin-4-amine], in assay [1], the 50% inhibitory concentration (IC50) amounted to 554 nM. Halving of growth in the assay with MDA-MB-231 (GI50) required 419 nM.
The matching figures for `Fc1cccc2nc(CNc3nc(N4CCOCC4)nc4c(-c5cnn(C(F)F)c5)cnn34)[nH]c12` [Compound 8, 8-(1-(difluoromethyl)-1H-pyrazol-4-yl)-N-((7-fluoro-1H-benzo[d]imidazol-2-yl)methyl)-2-morpholinopyrazolo[1,5-a][1,3,5]triazin-4-amine]: 44 nM and 44 nM.
On the same counts, the results for `CN1CCN(c2nc(NCc3nc4cccc(Cl)c4[nH]3)n3ncc(-c4ccsc4)c3n2)CC1` [Compound 10, N-((7-chloro-1H-benzo[d]imidazol-2-yl)methyl)-2-(4-methylpiperazin-1-yl)-8-(thiophen-3-yl)pyrazolo[1,5-a][1,3,5]triazin-4-amine] are 1560 nM and 835 nM.
On the same counts, the results for `Fc1cc2nc(CNc3nc(N4CCOCC4)nc4c(-c5ccsc5)cnn34)[nH]c2cc1F` [Compound 11, N-((5,6-difluoro-1H-benzo[d]imidazol-2-yl)methyl)-2-morpholino-8-(thiophen-3-yl)pyrazolo[1,5-a][1,3,5]triazin-4-amine] are 196 nM and 61 nM.
For the compound `OC[C@@H]1COCCN1c1nc(NCc2nc3cc(Cl)c(Cl)cc3[nH]2)n2ncc(-c3cnn(C(F)F)c3)c2n1` [Compound 4, (R)-(4-(4-(((5,6-dichloro-1H-benzo[d]imidazol-2-yl)methyl)amino)-8-(1-(difluoromethyl)-1H-pyrazol-4-yl)pyrazolo[1,5-a][1,3,5]triazin-2-yl)morpholin-3-yl)methanol], the IC50 in assay [1] was 4050 nM. Further, growth with MDA-MB-231 was halved (GI50) at 384 nM.
On the same counts, the results for `Cn1cc(-c2cnn3c(NCc4nc5cccc(Cl)c5[nH]4)nc(N4CCOCC4)nc23)cn1` [Compound 12, N-((7-chloro-1H-benzo[d]imidazol-2-yl)methyl)-8-(1-methyl-1H-pyrazol-4-yl)-2-morpholinopyrazolo[1,5-a][1,3,5]triazin-4-amine] are 289 nM and 1110 nM.
On the same counts, the results for `Clc1cccc2nc(CNc3nc(N4CCOCC4)nc4c(-c5ccsc5)cnn34)[nH]c12` [Compound 9, N-((7-chloro-1H-benzo[d]imidazol-2-yl)methyl)-2-morpholino-8-(thiophen-3-yl)pyrazolo[1,5-a][1,3,5]triazin-4-amine] are 377 nM and 227 nM.
The matching figures for `FC(F)n1cc(-c2cnn3c(NCc4nc5cc(Cl)c(Cl)cc5[nH]4)nc(N4CCOCC4)nc23)cn1` [Compound 2, N-((5,6-dichloro-1H-benzo[d]imidazol-2-yl)methyl)-8-(1-(difluoromethyl)-1H-pyrazol-4-yl)-2-morpholinopyrazolo[1,5-a][1,3,5]triazin-4-amine]: 262 nM and 150 nM.
As to `Cn1cc(-c2cnn3c(NCc4nc5cc(F)c(F)cc5[nH]4)nc(N4CCOCC4)nc23)cn1` [Compound 14, N-((5,6-difluoro-1H-benzo[d]imidazol-2-yl)methyl)-8-(1-methyl-1H-pyrazol-4-yl)-2-morpholinopyrazolo[1,5-a][1,3,5]triazin-4-amine], the half-maximal inhibitory concentration (IC50) in assay [1] stood at 1350 nM. The compound further displayed a GI50 with MDA-MB-231 of 1240 nM.
